Structures can show the parent of a compound that is named as a salt.

The experiment concerns the target T1, recombinant guanylate cyclase reporter cell line (Rattus norvegicus, UniProt P19686+P20595).
T1 construct: expressed in transfected cells; host or cells: recombinant reporter cell line
T1 sequence (P19686 1-690): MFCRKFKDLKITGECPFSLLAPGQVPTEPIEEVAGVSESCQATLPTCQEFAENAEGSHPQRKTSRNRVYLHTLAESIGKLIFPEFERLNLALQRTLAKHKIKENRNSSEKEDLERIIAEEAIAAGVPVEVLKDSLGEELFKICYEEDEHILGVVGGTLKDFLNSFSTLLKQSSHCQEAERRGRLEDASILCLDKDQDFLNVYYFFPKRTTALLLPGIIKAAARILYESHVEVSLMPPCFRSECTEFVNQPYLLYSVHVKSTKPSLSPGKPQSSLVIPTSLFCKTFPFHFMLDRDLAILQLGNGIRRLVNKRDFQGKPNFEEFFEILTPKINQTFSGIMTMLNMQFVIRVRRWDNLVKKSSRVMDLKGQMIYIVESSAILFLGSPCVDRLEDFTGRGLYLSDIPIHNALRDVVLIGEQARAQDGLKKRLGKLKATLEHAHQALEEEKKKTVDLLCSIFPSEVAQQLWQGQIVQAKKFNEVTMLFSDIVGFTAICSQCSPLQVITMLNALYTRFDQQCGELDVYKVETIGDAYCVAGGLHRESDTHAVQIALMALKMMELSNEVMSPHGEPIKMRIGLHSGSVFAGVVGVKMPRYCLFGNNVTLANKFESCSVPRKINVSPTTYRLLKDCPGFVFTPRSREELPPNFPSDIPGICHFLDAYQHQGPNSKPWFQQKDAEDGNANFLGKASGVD
T1 sequence (P20595 1-619): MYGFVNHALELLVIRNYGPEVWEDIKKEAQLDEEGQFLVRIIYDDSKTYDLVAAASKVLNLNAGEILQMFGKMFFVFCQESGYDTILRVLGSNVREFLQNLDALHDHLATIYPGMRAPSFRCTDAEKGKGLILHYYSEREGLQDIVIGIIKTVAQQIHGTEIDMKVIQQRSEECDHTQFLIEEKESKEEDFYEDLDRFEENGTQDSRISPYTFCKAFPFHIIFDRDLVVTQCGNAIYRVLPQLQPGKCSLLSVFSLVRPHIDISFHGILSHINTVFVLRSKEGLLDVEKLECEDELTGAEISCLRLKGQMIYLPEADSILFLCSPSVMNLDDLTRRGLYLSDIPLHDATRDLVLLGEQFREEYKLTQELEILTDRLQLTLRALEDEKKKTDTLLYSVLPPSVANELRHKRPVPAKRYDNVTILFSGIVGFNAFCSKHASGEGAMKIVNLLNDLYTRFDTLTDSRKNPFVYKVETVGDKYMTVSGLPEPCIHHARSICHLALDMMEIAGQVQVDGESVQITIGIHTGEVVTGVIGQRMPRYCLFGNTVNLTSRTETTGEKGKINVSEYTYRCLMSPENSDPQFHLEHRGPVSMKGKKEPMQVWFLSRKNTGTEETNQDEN
The experiment is described as follows: Action on recombinant guanylate cyclase reporter cell line. Type of experiment: cell-based. The following applies: in some cases mean values from individual determinations. As to the method:
B-2. Action on Recombinant Guanylate Cyclase Reporter Cell Line
The cellular action of the compounds according to the invention is determined on a recombinant guanylate cyclase reporter cell line, as described in F. Wunder et al., Anal. Biochem. 339, 104-112 (2005).
Representative MEC values (MEC=minimal effective concentration) for the compounds according to the invention are shown in the following table (in some cases as mean values obtained from individual determinations): […]
In the case of `Cc1cc(OCc2c(F)cccc2F)c2nc(C)c(C(=O)NC3CCC(N)C3)n2c1` (mixture of isomers) [Example 308, N-(3-aminocyclopentyl)-8-[(2,6-difluorobenzyl)oxy]-2,6-dimethylimidazo[1,2-a]pyridine-3-carboxamide (stereoisomer mixture)], the “MEC (minimal effective concentration)” value was 0.20 µM.

Turning to `Cc1cc(OCc2c(F)cccc2F)c2nc(C)c(C(=O)NC3CNCC3C(F)(F)F)n2c1` (mixture of isomers) [Example 313, 8-[(2,6-Difluorobenzyl)oxy]-2,6-dimethyl-N-[4-(trifluoromethyl)pyrrolidin-3-yl]imidazo[1,2-a]pyridine-3-carboxamide (mixture of stereoisomers)], the “MEC (minimal effective concentration)” value is 0.30 µM. Then `Cc1cc(OCc2c(F)cccc2F)c2nc(C)c(C(=O)NC3CC(N)C3)n2c1` (mixture of isomers) [Example 334, N-(3-aminocyclobutyl)-8-[(2,6-difluorobenzyl)oxy]-2,6-dimethylimidazo[1,2-a]pyridine-3-carboxamide (cis/trans mixture)], with 1.00 µM; and `Cc1cc(OCc2c(F)cccc2F)c2nc(C)c(C(=O)NC3CC(C)(C)C3N)n2c1` (mixture of isomers) [Example 358, N-(2-amino-3,3-dimethylcyclobutyl)-8-[(2,6-difluorobenzyl)oxy]-2,6-dimethylimidazo[1,2-a]pyridine-3-carboxamide Formate (Isomer Mixture)], with 0.30 µM; and `Cc1nc2c(OCc3c(F)cccc3F)cccn2c1C(=O)NC(CN)CC(F)(F)F` (racemic) [Example 2, rac-N-(1-Amino-4,4,4-trifluorobutan-2-yl)-8-[(2,6-difluorobenzyl)oxy]-2-methylimidazo[1,2-a]-pyridine-3-carboxamide], with 0.65 µM. The value for `Cc1nc2c(OCc3c(F)cccc3F)cccn2c1C(=O)NC(CN)CC(C(F)(F)F)C(F)(F)F` (racemic) [Example 5, rac-N-[1-amino-5,5,5-trifluoro-4-(trifluoromethyl)pentan-2-yl]-8-[(2,6-difluorobenzyl)oxy]-2-methylimidazo[1,2-a]-pyridine-3-carboxamide trifluoroacetate] was 1.00 µM; that for `Cc1nc2c(OCc3c(F)cccc3F)cccn2c1C(=O)NC(CN)c1ccc(F)cc1` (racemic) [Example 9, rac-N-[2-Amino-1-(4-fluorophenyl)ethyl]-8-[(2,6-difluorobenzyl)oxy]-2-methylimidazo[1,2-a]-pyridine-3-carboxamide] was 0.30 µM; that for `Cc1nc2c(OCc3c(F)cccc3F)cccn2c1C(=O)NC(CN)c1ccc(F)c(F)c1` (racemic) [Example 11, rac-N-[2-Amino-1-(3,4-difluorophenyl)ethyl]-8-[(2,6-difluorobenzyl)oxy]-2-methylimidazo[1,2-a]pyridine-3-carboxamide] was 0.30 µM. The value for `Cc1nc2c(OCc3c(F)cccc3F)cccn2c1C(=O)NC(CN)c1ccc(Cl)cc1` (racemic) [Example 14, rac-N-[2-Amino-1-(4-chlorophenyl)ethyl]-8-[(2,6-difluorobenzyl)oxy]-2-methylimidazo[1,2-a]-pyridine-3-carboxamide dihydrochloride] was 1.00 µM. In the case of `Cc1nc2c(OCc3c(F)cccc3F)cccn2c1C(=O)NC(CN)c1ccccc1` (racemic) [Example 16, rac-N-(2-Amino-1-phenylethyl)-8-[(2,6-difluorobenzyl)oxy]-2-methylimidazo[1,2-a]pyridine-3-carboxamide dihydrochloride], the “MEC (minimal effective concentration)” value was found to be 0.30 µM. The value for `Cc1nc2c(OCc3c(F)cccc3F)cccn2c1C(=O)NC(C)CN` (racemic) [Example 17, rac-N-(1-aminopropan-2-yl)-8-[(2,6-difluorobenzyl)oxy]-2-methylimidazo[1,2-a]pyridine-3-carboxamide dihydrochloride] was 1.00 µM; that for `Cc1nc2c(OCc3c(F)cccc3F)cc(Cl)cn2c1C(=O)NCC(C)N` (racemic) [Example 23, rac-N-(2-aminopropyl)-6-chloro-8-[(2,6-difluorobenzyl)oxy]-2-methylimidazo[1,2-a]-pyridine-3-carboxamide] was 0.30 µM; that for `Cc1nc2c(OCc3c(F)cccc3F)cccn2c1C(=O)NC1CNc2ccccc21` (racemic) [Example 28, rac-8-[(2,6-difluorobenzyl)oxy]-N-(2,3-dihydro-1H-indol-3-yl)-2-methylimidazo[1,2-a]pyridine-3-carboxamide] was 0.30 µM. Then `Cc1nc2c(OCc3c(F)cccc3F)cccn2c1C(=O)NCC(C)N` (racemic) [Example 34, rac-N-(2-aminopropyl)-8-[(2,6-difluorobenzyl)-oxy]-2-methyl-imidazo[1,2-a]pyridine-3-carboxamide dihydrochloride], with 1.00 µM. Then `Cc1nc2c(OCC3CCCCC3)cccn2c1C(=O)NC(CN)c1ccc(Cl)cc1` (racemic) [Example 43, rac-N-[2-Amino-1-(4-chlorophenyl)ethyl]-8-(cyclohexylmethoxy)-2-methylimidazo[1,2-a]-pyridine-3-carboxamide], with 1.00 µM; and `Cc1nc2c(OCC3CCCCC3)cccn2c1C(=O)NC(CN)c1ccccc1` (racemic) [Example 44, rac-N-(2-Amino-1-phenylethyl)-8-(cyclohexylmethoxy)-2-methylimidazo[1,2-a]pyridine-3-carboxamide], with 0.30 µM. For `Cc1nc2c(OCC3CCCCC3)cccn2c1C(=O)NC(CN)c1ccc(F)c(F)c1` (racemic) [Example 46, rac-N-[2-Amino-1-(3,4-difluorophenyl)ethyl]-8-(cyclohexylmethoxy)-2-methylimidazo[1,2-a]-pyridine-3-carboxamide], the “MEC (minimal effective concentration)” value amounted to 1.00 µM. Then `Cc1nc2c(OCc3c(F)cccc3F)cc(Cl)cn2c1C(=O)NC1CNc2ccccc21` (racemic) [Example 49, rac-6-Chloro-8-[(2,6-difluorobenzyl)oxy]-N-(2,3-dihydro-1H-indol-3-yl)-2-methylimidazo[1,2-a]-pyridine-3-carboxamide], with 0.30 µM; and `Cc1nc2c(OCc3c(F)cccc3F)cccn2c1C(=O)NC1CCNc2ccccc21` (racemic) [Example 50, rac-8-[(2,6-Difluorobenzyl)oxy]-2-methyl-N-(1,2,3,4-tetrahydroquinolin-4-yl)imidazo[1,2-a]-pyridine-3-carboxamide], with 0.03 µM; and `Cc1nc2c(OCc3c(F)cccc3F)cccn2c1C(=O)NC(CN)COc1ccc(F)cc1` (racemic) [Example 58, rac-N-[1-amino-3-(4-fluorophenoxy)propan-2-yl]-8-[(2,6-difluorobenzyl)oxy]-2-methylimidazo[1,2-a]pyridine-3-carboxamide], with 1.00 µM.

Take `Cc1nc2c(OCc3c(F)cccc3F)cccn2c1C(=O)NC(CN)COc1ccccc1` (racemic) [Example 59, rac-N-(1-amino-3-phenoxypropan-2-yl)-8-[(2,6-difluorobenzyl)oxy]-2-methylimidazo[1,2-a]-pyridine-3-carboxamide dihydrochloride]: the “MEC (minimal effective concentration)” value was 3.00 µM.

(Values after patent US20150274719A1, “AMINO-SUBSTITUTED IMIDAZO[1,2-A]PYRIDINECARBOXAMIDES AND THEIR USE” (BAYER PHARMA AKTIENGESELLSCHAFT, priority 2012, published 2015).)
